System: PC-3 multi-cell spheroids, viability
Experiment: Anticancer human tumor PC-3 cell line growth inhibition [IpAb];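 note: spheroids exposed to compounds for 7 days before readout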;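 for viability, T/C: 100% = DMSO vehicle control wells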
Details: for IC50: curve of first compound; for viability, T/C: stronger effect = lower value
Procedure, shortened: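 Multi-cell spheroids of 60% tumour cells, 25% HUVEC and 15% MSC in ultra-low-attachment U-bottom wells, treated with agents combined with ipatasertib or abemaciclib. Half-log ranges top out near clinical Cmax, or 10 microM when Cmax is unknown.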

**Q.** With C=CCn1c(=O)c2cnc(Nc3ccc(N4CCN(C)CC4)cc3)nc2n1-c1cccc(C(C)(C)O)n1 + CCN1CCN(Cc2ccc(Nc3ncc(F)c(-c4cc(F)c5nc(C)n(C(C)C)c5c4)n3)nc2)CC1 as the molecule, how does the IC50 (second compound 0.01 µM) read?
**A.** Its IC50 is 515 nM.

**Q.** And the IC50 (second compound 0.0316 µM)?
**A.** Its IC50 is 290 nM.

**Q.** And the IC50 (second compound 0.1 µM)?
**A.** Its IC50 is 446 nM.

**Q.** What about the IC50 (second compound 0.316 µM) of the same molecule?
**A.** Its IC50 is 450 nM.

**Q.** What about the IC50 (second compound 1 µM) of the same molecule?
**A.** Its IC50 is 290 nM.

**Q.** And the viability, T/C (second compound 0.01 µM, first compound 0.0316 µM)?
**A.** The viability, T/C was 66.6%.

**Q.** What about the viability, T/C (second compound 0.01 µM, first compound 0.1 µM) of the same molecule?
**A.** Its viability, T/C is 76.6%.

**Q.** And the viability, T/C (second compound 0.01 µM, first compound 0.316 µM)?
**A.** The viability, T/C was 53.7%.

**Q.** And the viability, T/C (second compound 0.01 µM, first compound 1 µM)?
**A.** Its viability, T/C is 42.5%.

**Q.** What about the viability, T/C (second compound 0.01 µM, first compound 3.16 µM) of the same molecule?
**A.** Its viability, T/C is 22%.

**Q.** And the viability, T/C (second compound 0.01 µM, first compound 10 µM)?
**A.** Its viability, T/C is 27.1%.

**Q.** What about the viability, T/C (second compound 0.0316 µM, first compound 0.0316 µM) of the same molecule?
**A.** Its viability, T/C is 67.4%.

**Q.** What about the viability, T/C (second compound 0.0316 µM, first compound 0.1 µM) of the same molecule?
**A.** Its viability, T/C is 54.7%.

**Q.** And the viability, T/C (second compound 0.0316 µM, first compound 0.316 µM)?
**A.** Its viability, T/C is 51.9%.

**Q.** And the viability, T/C (second compound 0.0316 µM, first compound 1 µM)?
**A.** The viability, T/C was 39.6%.

**Q.** And the viability, T/C (second compound 0.0316 µM, first compound 3.16 µM)?
**A.** Its viability, T/C is 24%.

**Q.** And the viability, T/C (second compound 0.0316 µM, first compound 10 µM)?
**A.** Its viability, T/C is 26.4%.

**Q.** What about the viability, T/C (second compound 0.1 µM, first compound 0.0316 µM) of the same molecule?
**A.** Its viability, T/C is 59.9%.

**Q.** What about the viability, T/C (second compound 0.1 µM, first compound 0.1 µM) of the same molecule?
**A.** The viability, T/C was 51.2%.

**Q.** And the viability, T/C (second compound 0.1 µM, first compound 0.316 µM)?
**A.** Its viability, T/C is 52.6%.

**Q.** And the viability, T/C (second compound 0.1 µM, first compound 1 µM)?
**A.** The viability, T/C was 41.4%.

**Q.** And the viability, T/C (second compound 0.1 µM, first compound 3.16 µM)?
**A.** Its viability, T/C is 24%.

**Q.** And the viability, T/C (second compound 0.1 µM, first compound 10 µM)?
**A.** The viability, T/C was 24.5%.

**Q.** What about the viability, T/C (second compound 0.316 µM, first compound 0.0316 µM) of the same molecule?
**A.** The viability, T/C was 59.6%.

**Q.** And the viability, T/C (second compound 0.316 µM, first compound 0.1 µM)?
**A.** Its viability, T/C is 56.3%.

**Q.** What about the viability, T/C (second compound 0.316 µM, first compound 0.316 µM) of the same molecule?
**A.** The viability, T/C was 52.2%.

**Q.** What about the viability, T/C (second compound 0.316 µM, first compound 1 µM) of the same molecule?
**A.** Its viability, T/C is 43.2%.

**Q.** And the viability, T/C (second compound 0.316 µM, first compound 3.16 µM)?
**A.** The viability, T/C was 26.3%.

**Q.** What about the viability, T/C (second compound 0.316 µM, first compound 10 µM) of the same molecule?
**A.** Its viability, T/C is 24.9%.

**Q.** And the viability, T/C (second compound 1 µM, first compound 0.0316 µM)?
**A.** The viability, T/C was 55.7%.

**Q.** And the viability, T/C (second compound 1 µM, first compound 0.1 µM)?
**A.** The viability, T/C was 53.3%.

**Q.** And the viability, T/C (second compound 1 µM, first compound 0.316 µM)?
**A.** The viability, T/C was 51.1%.

**Q.** And the viability, T/C (second compound 1 µM, first compound 1 µM)?
**A.** The viability, T/C was 38.7%.

**Q.** And the viability, T/C (second compound 1 µM, first compound 3.16 µM)?
**A.** Its viability, T/C is 31.6%.

**Q.** What about the viability, T/C (second compound 1 µM, first compound 10 µM) of the same molecule?
**A.** The viability, T/C was 25.1%.

**Q.** With Cn1cnc2c(F)c(Nc3ccc(Br)cc3Cl)c(C(=O)NOCCO)cc21 + CCN1CCN(Cc2ccc(Nc3ncc(F)c(-c4cc(F)c5nc(C)n(C(C)C)c5c4)n3)nc2)CC1 as the molecule, how does the IC50 (second compound 0.01 µM) read?
**A.** Its IC50 is over 3000 nM.

**Q.** What about the IC50 (second compound 0.0316 µM) of the same molecule?
**A.** Its IC50 is 1950 nM.

**Q.** And the IC50 (second compound 0.1 µM)?
**A.** The IC50 was 1580 nM.

**Q.** What about the IC50 (second compound 0.316 µM) of the same molecule?
**A.** The IC50 was 594 nM.

**Q.** And the IC50 (second compound 1 µM)?
**A.** Its IC50 is 29.4 nM.

**Q.** What about the viability, T/C (second compound 0.01 µM, first compound 0.00949 µM) of the same molecule?
**A.** Its viability, T/C is 95%.

**Q.** And the viability, T/C (second compound 0.01 µM, first compound 0.03 µM)?
**A.** The viability, T/C was 86.2%.

**Q.** What about the viability, T/C (second compound 0.01 µM, first compound 0.0949 µM) of the same molecule?
**A.** The viability, T/C was 91.7%.

**Q.** What about the viability, T/C (second compound 0.01 µM, first compound 0.3 µM) of the same molecule?
**A.** The viability, T/C was 87.7%.

**Q.** What about the viability, T/C (second compound 0.01 µM, first compound 0.949 µM) of the same molecule?
**A.** Its viability, T/C is 79.7%.

**Q.** And the viability, T/C (second compound 0.01 µM, first compound 3 µM)?
**A.** The viability, T/C was 59.8%.

**Q.** What about the viability, T/C (second compound 0.0316 µM, first compound 0.00949 µM) of the same molecule?
**A.** Its viability, T/C is 74.1%.

**Q.** And the viability, T/C (second compound 0.0316 µM, first compound 0.03 µM)?
**A.** The viability, T/C was 72.1%.

**Q.** What about the viability, T/C (second compound 0.0316 µM, first compound 0.0949 µM) of the same molecule?
**A.** The viability, T/C was 62.2%.

**Q.** And the viability, T/C (second compound 0.0316 µM, first compound 0.3 µM)?
**A.** The viability, T/C was 71.8%.

**Q.** What about the viability, T/C (second compound 0.0316 µM, first compound 0.949 µM) of the same molecule?
**A.** Its viability, T/C is 57%.

**Q.** And the viability, T/C (second compound 0.0316 µM, first compound 3 µM)?
**A.** The viability, T/C was 45%.

**Q.** And the viability, T/C (second compound 0.1 µM, first compound 0.00949 µM)?
**A.** The viability, T/C was 56%.

**Q.** What about the viability, T/C (second compound 0.1 µM, first compound 0.03 µM) of the same molecule?
**A.** The viability, T/C was 58.3%.

**Q.** What about the viability, T/C (second compound 0.1 µM, first compound 0.0949 µM) of the same molecule?
**A.** The viability, T/C was 58.2%.

**Q.** What about the viability, T/C (second compound 0.1 µM, first compound 0.3 µM) of the same molecule?
**A.** The viability, T/C was 49.2%.

**Q.** What about the viability, T/C (second compound 0.1 µM, first compound 0.949 µM) of the same molecule?
**A.** Its viability, T/C is 53.7%.

**Q.** What about the viability, T/C (second compound 0.1 µM, first compound 3 µM) of the same molecule?
**A.** Its viability, T/C is 47.8%.

**Q.** And the viability, T/C (second compound 0.316 µM, first compound 0.00949 µM)?
**A.** Its viability, T/C is 60.2%.

**Q.** What about the viability, T/C (second compound 0.316 µM, first compound 0.03 µM) of the same molecule?
**A.** The viability, T/C was 50.5%.

**Q.** What about the viability, T/C (second compound 0.316 µM, first compound 0.0949 µM) of the same molecule?
**A.** Its viability, T/C is 53.6%.

**Q.** And the viability, T/C (second compound 0.316 µM, first compound 0.3 µM)?
**A.** The viability, T/C was 54.6%.

**Q.** And the viability, T/C (second compound 0.316 µM, first compound 0.949 µM)?
**A.** The viability, T/C was 48.1%.

**Q.** What about the viability, T/C (second compound 0.316 µM, first compound 3 µM) of the same molecule?
**A.** Its viability, T/C is 41.5%.

**Q.** What about the viability, T/C (second compound 1 µM, first compound 0.00949 µM) of the same molecule?
**A.** Its viability, T/C is 53.2%.

**Q.** And the viability, T/C (second compound 1 µM, first compound 0.03 µM)?
**A.** Its viability, T/C is 47.3%.

**Q.** And the viability, T/C (second compound 1 µM, first compound 0.0949 µM)?
**A.** Its viability, T/C is 42.6%.

**Q.** What about the viability, T/C (second compound 1 µM, first compound 0.3 µM) of the same molecule?
**A.** The viability, T/C was 52.1%.

**Q.** And the viability, T/C (second compound 1 µM, first compound 0.949 µM)?
**A.** The viability, T/C was 57.2%.

**Q.** What about the viability, T/C (second compound 1 µM, first compound 3 µM) of the same molecule?
**A.** Its viability, T/C is 36.5%.
